Read-outs that look alike come from different tables or passages of the source.
Legend:
Format in all cases: physicochemical
[1] = Weight loss after 3 hours at 130° C.
Procedure: 12.0 g of pentaerythritol, 42.8 g of phenylglyoxylic acid and 0.27 g of sulfuric acid are suspended in 17.8 g of methylcyclohexane and the suspension is heated under reflux. The water of esterification is removed via a separating vessel, so that the esterification reaction is at an end after 8 hours. Distillation of the methylcyclohexane leaves a solid melt (acid number 25 mg KOH/g). The weight loss after 3 hours at 130° C. is 7.3%.
21.4 g of 1,4-butanediol diglycidyl ether (Araldit DY026) are mixed with 30 g of phenylglyoxylic acid in the presence of 0.5 g of tetrabutylammonium bromide. The mixture is cautiously heated to 103° C. and is held at this temperature for 5 hours until the acid number has fallen to 7.2 mg KOH/g. The product is a highly viscous liquid (153.6 Pas). The weight loss after 3 hours at 130° C. is 0.7%.
28.84 g of 1,4-bis(hydroxymethyl)cyclohexane, 72.23 g of methyl phenylglyoxylate and 0.82 g of dibutoxydibutyltin are melted over 180° C. in a reaction flask and methanol is distilled off via a column. After virtually all of the theoretical amount of methanol has passed over, the residue is concentrated on a rotary evaporator, the concentrate is digested in ethanol, and the resulting solid is filtered off with suction. The IR and H-NMR spectra correspond to the expected structure. The melting point is 92° C. The weight loss after 3 hours at 130° C. is 0.5%.

[2] = Solubility in Laromer LR 8987
Excerpt: Using a box-type coating bar, a glass plate was coated with this formulation so as to form a film having a thickness of 50 μm or 100 μm. This film was subsequently cured in an IST belt exposure unit at 10 m/min under air.
4 parts of 4,4′-isopropylidenedicyclohexanol di(phenylglyoxylate) [hydrogenated bisphenol-A-di(phenylglyoxylate)] were insoluble in 96 parts of Laromer LR 8987. Therefore, radiation curing was not possible.
However, the solubility was sufficient to prepare and cure a film as described above.

[3] = Solubility in hexanediol diacrylate (HDDA); set-up: key: sol = soluble; insol = insoluble
Excerpt: a) Solubility in hexanediol diacrylate (HDDA)

[4] = Solubility in an aliphatic urethane acrylate; settings: 2%
Procedure: b) The solubility of 2% each of 1,4-cyclohexanedimethanol di(phenylglyoxylate) and 4,4′-isopropylidenedicyclohexanol di(phenylglyoxylate) in an aliphatic urethane acrylate was also tested.

solubility in Laromer LR 8987 [2]	Solubility in hexanediol diacrylate (HDDA) ([3]; 3%)	Molecule	weight loss after 3 hours at 130° C. [1] [%]	solubility in Laromer LR 8987 ([2]; 4 parts in 96 parts of Laromer LR 8987 (mixture of hexanediol diacrylate and an aliphatic urethane acrylate))	Solubility in hexanediol diacrylate (HDDA) ([3]; 1%)	Solubility in hexanediol diacrylate (HDDA) ([3]; 2%)	solubility in an aliphatic urethane acrylate [4]
–	–	1,4-Butanediol Diglycidyl Ether Diglyoxylate [Example 2]	0.7	–	–	–	–
–	–	4,4′-isopropylidenedicyclohexanol di(phenylglyoxylate)	–	insoluble	sol	in-	insoluble or did not dissolve completely
did not dissolve completely	in-	O=C(OC1CCC(OC(=O)C(=O)c2ccccc2)CC1)C(=O)c1ccccc1 (stereo not shown) [1,4-cyclohexanediol di(phenylglyoxylate)]	–	–	sol	sol	–
–	–	O=CC(=O)OCC(COC(=O)C=O)(COC(=O)C=O)COC(=O)C=O [Example 1, Pentaerythritol Tetraglyoxylate]	7.3	–	–	–	–
